Measured values reported in patent US20140309171A1, “MARKER FOR BLOOD COAGULATION” (Universite Catholique De Louvain, priority 2011, published 2014).
“Also recorded” adds a separate entry of the source.

Legend:
Type in all cases: cell-based
[1] = test system: Ser79 acetyl-CoA carboxylase (ACC) phosphorylation in human platelets; experiment: Western blot of phosphorylated (Ser79) ACC in human platelets; conditions: 10 μM STO-609, 0.1 U/ml thrombin
[2] = test system: myosin light chain (MLC) Ser 19 phosphorylation; experiment: Western blot of MLC Ser19 phosphorylation in human platelets; conditions: 0.1 U/ml thrombin, pre-incubation with STO-609
Procedure: (§1) Washed human platelets (used in in vitro studies). Platelets were obtained from adult healthy volunteers in accordance with the Ethics Commission of our institution (Commission d'Ethique Biomédicale Hospitalo-Facultaire, Université catholique de Louvain). Whole blood was collected with butterfly needle 21G into Sodium Citrate 1:10 solution (S-monovette). Platelet-rich plasma (PRP) was obtained by 15 min centrifugation at 330 g. The platelets pellet was then washed in Tyrode modified buffer (135 mM NaCl, 12 mM NaHCO3, 1 mM Sodium Citrate, 2.9 mM KCl, 0.3 mM Na2HPO4, 1 mM MgCl2, 5 mM D-glucose, 10 mM Hepes, 0.35% bovine serum albumin (BSA), pH 7.4 at 37° C.) and resuspended to a density of 2.5 10^5 platelets/μl for the measurement of intracellular Ca^2+ or platelet aggregation. […]
(§2) Proteins were separated as described (Miranda et al. 2010. J Clin Invest 103(6): 879-887). […] Bound antibodies were detected by enhanced chemiluminescence (Thermofisher). […] Band intensities were quantified by scanning and processing image intensities with the program ImageJ (1.33 for Mac OS X). The quantification of immunoblots presented in results was obtained after normalization using the internal loading control.

[3] = test system: cofilin Ser3 phosphorylation; experiment: Western blot of cofilin Ser3 phosphorylation in human platelets; conditions: 0.1 U/ml thrombin, 10 μM STO-609, 10 min after thrombin exposure
Procedure: as §1, §2

[4] = test system: VASP Thr 278 phosphorylation; experiment: Western blot of VASP Thr278 phosphorylation in human platelets; conditions: 0.1 U/ml thrombin, pre-incubation with STO-609
Procedure: as §1, §2

[5] = test system: intracellular Ca2+ in human platelets; experiment: Cytosolic Ca2+ measurement in fluo-3-loaded platelets; conditions: 10 μM STO-609, 0.1 U/ml thrombin, 1 mM extracellular Ca2+
Procedure: Platelets pelleted from the platelet-rich plasma were suspended in Ca^2+-free modified Tyrode's buffer and then incubated with 3 μM flou-3/acetoxymethyl ester (Santa Cruz Biotechnology) at 37° C. for 30 min. Probenecid 2.5 mM (Sigma-Aldrich) was added to the buffer throughout the experiments to prevent leakage of the dye. After 2 washings, fluo-3-loaded platelets were suspended in modified Tyrode's buffer at a concentration of 2 10^7 platelets/ml. They were then pre-incubated with 10 μM STO-609 in the presence of 1 mM extracellular Ca^2+ with stirring at 37° C. for 2 min before the addition of thrombin (0.1 U/ml). Fluorescence (excitation 505 nm, emission 530 nm) was measured with a spectrophotometer (AMINCO SPF500). Ca^2+ concentration as estimated as follows: Kd* (F−Fmin)/(Fmax−Fmin), where the Kd of Fluo-3 is ([…] at 37° C.). The minimal fluorescence (Fmin) is the fluorescence in the absence of Ca^2+ and Fmax is the fluorescence determined with ionomycin 1 μM.

washed human platelets = experiment: Platelet aggregation, light transmission (Chrono-Log Aggregometer)
Procedure: Washed human platelets (used in in vitro studies). Platelets were obtained from adult healthy volunteers in accordance with the Ethics Commission of our institution (Commission d'Ethique Biomédicale Hospitalo-Facultaire, Université catholique de Louvain). Whole blood was collected with butterfly needle 21G into Sodium Citrate 1:10 solution (S-monovette). Platelet-rich plasma (PRP) was obtained by 15 min centrifugation at 330 g. The platelets pellet was then washed in Tyrode modified buffer (135 mM NaCl, 12 mM NaHCO3, 1 mM Sodium Citrate, 2.9 mM KCl, 0.3 mM Na2HPO4, 1 mM MgCl2, 5 mM D-glucose, 10 mM Hepes, 0.35% bovine serum albumin (BSA), pH 7.4 at 37° C.) and resuspended to a density of 2.5 10^5 platelets/μl for the measurement of intracellular Ca^2+ or platelet aggregation. For Western Blot analysis, PRP with eptifibatide 4 μg/ml (Integriline, GlaxoSmithKline) and ectonucleotidase apyrase (grade I) 0.5 U/ml was layered over a density barrier of iodixanol (Optiprep®) that allowed the erythrocytes and leucocytes to pellet during centrifugation at 350 g for 15 min. The platelets, because of their small size, sediment much more slowly. After centrifugation at 800 g for 10 min, the resulting pellet was resuspended to a density of 2·10^5 platelets/μl in Tyrode modified buffer before treatment and lysis of samples.
Light transmission during thrombin-induced platelet aggregation in human and murine PRP was recorded with a Chrono-Log Aggregometer at 37° C., under stirring condition (1200 crpm). The platelet suspension was incubated with dimethyl sulfoxide (DMSO, vehicle) or STO-609 (10 μM, Tocris) for 2 min before the addition of the thrombin (+/−0.03 U/ml). CaCl2 2 mM was added prior to the agonists.
To evaluate the potential implication of CaMKKβ in platelet aggregation, washed human platelets were pre-incubated for 2 min with 10 μM STO-609, prior to treatment with thrombin or ADP.

[6] = test system: activated conformation of αIIbβ3 on human platelets; experiment: Flow cytometry, PAC-1 binding; conditions: 0.025 U/ml thrombin, 10 μM STO-609
Procedure: Flow cytometric analysis was performed on a FACScan (Becton Dickinson). Washed human platelets (2·10^5 platelets/μl) were pre-incubated with DMSO/STO-609 for 2 min and then treated with or without thrombin (0.025 U/ml) in the presence of excessive amounts of FITC-conjugated monoclonal antibody (anti-CD62P (BD Biosciences) or PAC-1 (BD Biosciences)) at room temperature. The samples were then fixed at 4° C. for 30 min with 2% paraformaldehyde. The levels of P-selectin expression and PAC1 binding were expressed as the percentages of cells positive for anti-CD62P and PAC-1, respectively. The negative cut-off for each antibody was set using resting platelets that gave less than 5% of cells positive for binding of anti-CD62P or PAC-1. In addition to aggregation measurements, we examined by flow cytometry STO-609 effects on PAC-1 binding, an antibody specific for the activated conformation of αIIbβ3. Platelets were activated by 0.025 U/ml thrombin in the absence or presence of 10 μM STO-609.

Compound: O=C(O)c1ccc2c3c1cccc3c(=O)n1c3ccccc3nc21 [STO-609]
- AMPK activation, as judged by phosphorylation of downstream Ser79 acetyl-CoA carboxylase (ACC) [1]: markedly reduced
- thrombin-induced MLC phosphorylation, effect of pre-incubation [2]: decreased significantly; also recorded: prevents
- thrombin-induced cofilin phosphorylation, effect of pre-incubation [3]: significantly decreased; also recorded: prevents
- thrombin-induced VASP phosphorylation on Thr 278, effect of pre-incubation [4]: prevents
- rise in Ca2+ concentration in response to thrombin [5]: did not modify
- platelet aggregation caused by ADP (effect in words) (washed human platelets; 20 μM ADP, 10 μM STO-609): not inhibited
- thrombin-induced platelet aggregation, % of aggregation (washed human platelets; 0.025 U/ml thrombin + 10 μM STO-609, 2 min pre-incubation): 11±4%
- thrombin-induced platelet aggregation (effect in words) (washed human platelets; 0.025 U/ml thrombin, 10 μM STO-609): significantly inhibited; also recorded: prevents
- PAC-1 binding in response to thrombin [6]: significantly inhibited
